Results taken from patent publication US8778939B2, “Compounds” (Glaxo Group Limited, priority 2009, dated 2014).

Key:
[1] = target: T1, 6His-Tev-LRRK2 (1326-2527) (Homo sapiens, UniProt Q5S007); assay: LRRK2 AlphaScreen desensitised protein substrate assay; assay type: biochemical; conditions: excess of ATP present (2 mM ATP); read-out: pIC50 in the LRRK2 alphascreen desensitised protein substrate assay (converted)
T1 construct: A LRRK2 cDNA encoding residues 1326-2527 was received from Dundee University; made in house; host or cells: Spodoptera frugiperda (Sf9) insect cells, baculovirus
T1 sequence (Q5S007 1326-2527): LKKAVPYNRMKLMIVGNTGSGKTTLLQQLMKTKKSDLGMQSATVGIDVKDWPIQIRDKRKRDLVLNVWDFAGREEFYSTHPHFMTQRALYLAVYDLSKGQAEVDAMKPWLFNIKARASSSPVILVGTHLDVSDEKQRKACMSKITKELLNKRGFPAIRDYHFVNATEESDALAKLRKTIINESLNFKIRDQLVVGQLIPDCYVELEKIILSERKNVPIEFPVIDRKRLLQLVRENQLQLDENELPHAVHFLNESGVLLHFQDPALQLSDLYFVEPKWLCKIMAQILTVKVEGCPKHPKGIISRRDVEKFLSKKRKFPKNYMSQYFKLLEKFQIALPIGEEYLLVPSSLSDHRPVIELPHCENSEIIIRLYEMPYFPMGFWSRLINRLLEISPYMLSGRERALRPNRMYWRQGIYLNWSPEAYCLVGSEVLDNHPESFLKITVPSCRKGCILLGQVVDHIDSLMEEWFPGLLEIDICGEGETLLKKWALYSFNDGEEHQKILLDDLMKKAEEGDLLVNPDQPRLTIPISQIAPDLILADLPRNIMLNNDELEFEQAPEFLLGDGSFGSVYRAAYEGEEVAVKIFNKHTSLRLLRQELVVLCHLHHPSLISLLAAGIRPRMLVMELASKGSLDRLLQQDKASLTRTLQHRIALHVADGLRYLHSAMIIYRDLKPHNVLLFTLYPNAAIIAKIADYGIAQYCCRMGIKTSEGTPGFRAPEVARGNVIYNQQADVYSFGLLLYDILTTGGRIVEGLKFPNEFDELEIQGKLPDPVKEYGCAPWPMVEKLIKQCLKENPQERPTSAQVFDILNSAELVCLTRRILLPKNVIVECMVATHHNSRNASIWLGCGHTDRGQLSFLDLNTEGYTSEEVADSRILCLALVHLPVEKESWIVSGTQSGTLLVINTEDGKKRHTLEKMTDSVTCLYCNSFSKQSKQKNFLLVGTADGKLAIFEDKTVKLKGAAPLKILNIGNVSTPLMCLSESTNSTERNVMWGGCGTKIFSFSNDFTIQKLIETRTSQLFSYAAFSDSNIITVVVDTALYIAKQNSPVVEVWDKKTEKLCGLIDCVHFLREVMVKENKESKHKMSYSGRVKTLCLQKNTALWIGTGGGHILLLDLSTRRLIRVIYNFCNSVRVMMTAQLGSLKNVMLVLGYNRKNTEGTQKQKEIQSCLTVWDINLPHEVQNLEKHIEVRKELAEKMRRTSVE
Description: (§1) a) 100 nl of a 1:4 serial dilution of test compound with a top final assay concentration of 30 μM is added to certain wells in a low volume 384 well black plate. 100 nl of DMSO is used in certain wells as controls.
b) 3 μl enzyme solution (80 nM purified recombinant 6His-Tev-LRRK2 (1326-2527) in assay buffer: 50 mM Hepes (pH 7.2), 10 mM MgCl2, 150 mM NaCl, 5% glycerol, 0.0025% triton X-100 and 1 mM DTT) is added to certain wells.
Plates are then incubated for a further 1-2 hours at room temperature (incubation time varies depending upon rate and linearity of reaction with differing enzyme batches).
d) 6 μl detection solution (1:250 dilution of AlphaLisa Protein A Acceptor beads (PerkinElmer), 1:64 dilution of AlphaLisa Gluthathione Donor beads (PerkinElmer) and 1:600 dilution (dilution determined on a batch to batch basis) of Phospho-Ezrin (Thr567)/Radixin (Thr564)/Moesin (Thr558) Polyclonal Antibody (New England Biolabs) in a buffer: 50 mM Hepes (pH 7.5), 250 mM NaCl, 60 mM EDTA, 1% PEG and 0.01% Brij 35) is added to each well. Plates are then incubated for a further 2 hours at room temperature in the dark before reading on an EnVision™ plate reader with AlphaScreen HTS turbo option module and AlphaScreen settings. Data is analysed using ActivityBase software (IDBS).
LRRK2 AlphaScreen Desensitised Protein Substrate Assay
This is conducted as described for the LRRK2 alphascreen protein substrate assay, with the following differences: • 1. The concentration of ATP in the substrate solution was 2 mM. • 2. The plates were incubated for 20 minutes at room temperature following addition of the substrate solution. Pharmacological Data

[2] = target: T1, 6His-Tev-LRRK2 (1326-2527); assay: LRRK2 peptide substrate assay; assay type: biochemical; conditions: Biotin-LRRKtide peptide substrate, ATP at Km; read-out: pIC50 in the LRRK2 peptide substrate assay (converted)
Description: Compounds of formula (I) may be tested for in vitro kinase activity in accordance with the following assays, using the non natural, in vitro, substrates moesin and the Longer Biotin-LRRKtide. Moesin and a shorter version of the peptide were identified as substrates in Jaleel et al, (2007, Biochem J, 405: 307-317).
LRRK2 Peptide Substrate Assay
as §1
b) 3 μl enzyme solution (80 nM purified recombinant 6His-Tev-LRRK2 (1326-2527) in assay buffer: 50 mM Hepes (pH 7.2), 10 mM MgCl2, 150 mM NaCl, 5% glycerol, 0.0025% triton X-100 and 1 mM DTT) is added to certain wells. […] Plates are then incubated for a further 1-2 hours at room temperature (incubation time varies depending upon rate and linearity of reaction with differing enzyme batches). d) 6 μl detection solution (50 nM Streptavidin SureLight® APC (PerkinElmer), 4 nM Eu-W1024 labelled anti-rabbit IgG antibody (PerkinElmer), 1:500 dilution (dilution determined on a batch to batch basis) of Phospho-Ezrin (Thr567)/Radixin (Thr564)/Moesin (Thr558) Polyclonal Antibody (New England Biolabs) and 60 mM EDTA in buffer: 40 mM Hepes (pH 7.2), 150 mM NaCl, 0.03% BSA) is added to each well. Plates are then incubated for a further 2 hours at room temperature before reading on a suitable plate reader (Excitation 330 nm, emission 620 nm (Eu) and 665 nm (APC)). Data is analysed using ActivityBase software (IDBS). LRRK2 AlphaScreen Protein Substrate Assay

| Compound | IC50 [1] [µM] | IC50 [2] [µM] |
| --- | --- | --- |
| CN1CCN(C(=O)c2ccc(OCc3ccccc3)c(C(=O)Nc3cccnc3)c2)CC1 [Example 35, 5-[(4-Methyl-1-piperazinyl)carbonyl]-2-[(phenylmethyl)oxy]-N-3-pyridinylbenzamide] | ≤ 20 | – |
| O=C(Nc1cccnc1)c1cc(C(=O)N2CCCCC2)ccc1OCc1ccccc1 [Example 36, 2-[(Phenylmethyl)oxy]-5-(1-piperidinylcarbonyl)-N-3-pyridinylbenzamide] | ≤ 20 | – |
| O=C(Nc1cccnc1)c1cc(C(=O)N2CCCC2)ccc1OCc1ccccc1 [Example 37, 2-[(Phenylmethyl)oxy]-N-3-pyridinyl-5-(1-pyrrolidinylcarbonyl)benzamide] | ≤ 20 | ≤ 0.1 |
| O=C(Nc1cccnc1)c1cc(S(=O)(=O)N2CCOCC2)ccc1OCc1ccccc1 [Example 41, 5-(4-Morpholinylsulfonyl)-2-[(phenylmethyl)oxy]-N-3-pyridinylbenzamide] | > 25.1 | – |
| O=C(Nc1cccnc1)c1cc(S(=O)(=O)N2CCCCC2)ccc1OCc1ccccc1 [Example 42, 2-[(Phenylmethyl)oxy]-5-(1-piperidinylsulfonyl)-N-3-pyridinylbenzamide] | > 25.1 | – |
| CN1CCN(S(=O)(=O)c2ccc(OCc3ccccc3)c(C(=O)Nc3cccnc3)c2)CC1 [Example 43, 5-[(4-Methyl-1-piperazinyl)sulfonyl]-2-[(phenylmethyl)oxy]-N-3-pyridinylbenzamide] | > 25.1 | – |
| Cn1cc(NC(=O)c2cc(Br)ccc2OCc2ccccc2)cn1 [Example 50, 5-Bromo-N-(1-methyl-1H-pyrazol-4-yl)-2-[(phenylmethyl)oxy]benzamide] | ≤ 20 | – |
| Cc1ccncc1NC(=O)c1cc(-c2ccncc2)ccc1OCc1ccccc1 [Example 52, N-(4-Methyl-3-pyridinyl)-2-[(phenylmethyl)oxy]-5-(4-pyridinyl)benzamide] | > 25.1 | – |
| COc1ncccc1NC(=O)c1cc(-c2ccncc2)ccc1OCc1ccccc1 [Example 53, N-[2-(Methyloxy)-3-pyridinyl]-2-[(phenylmethyl)oxy]-5-(4-pyridinyl)benzamide] | > 25.1 | – |
| O=C(Nc1cccnc1F)c1cc(-c2ccncc2)ccc1OCc1ccccc1 [Example 54, N-(2-Fluoro-3-pyridinyl)-2-[(phenylmethyl)oxy]-5-(4-pyridinyl)benzamide] | ≤ 20 | – |
| O=C(Nc1cccnc1CO)c1cc(-c2ccncc2)ccc1OCc1ccccc1 [Example 55, N-[2-(Hydroxymethyl)-3-pyridinyl]-2-[(phenylmethyl)oxy]-5-(4-pyridinyl)benzamide] | > 25.1 | – |
| O=C(Nc1cnccc1CO)c1cc(-c2ccncc2)ccc1OCc1ccccc1 [Example 56, N-[4-(Hydroxymethyl)-3-pyridinyl]-2-[(phenylmethyl)oxy]-5-(4-pyridinyl)benzamide] | > 25.1 | – |
| Cc1oncc1NC(=O)c1cc(-c2ccncc2)ccc1OCc1ccccc1 [Example 62, N-(5-Methyl-4-isoxazolyl)-2-[(phenylmethyl)oxy]-5-(4-pyridinyl)benzamide] | > 25.1 | – |
| O=C(Nc1cn[nH]c1)c1cc(-c2ccncc2)ccc1OCc1ccccc1 [Example 64, 2-[(Phenylmethyl)oxy]-N-1H-pyrazol-4-yl-5-(4-pyridinyl)benzamide] | ≤ 20 | – |
| Cn1cc(NC(=O)c2cc(-c3ccncc3)ccc2OCc2ccccc2)cn1 [Example 65, N-(1-Methyl-1H-pyrazol-4-yl)-2-[(phenylmethyl)oxy]-5-(4-pyridinyl)benzamide] | ≤ 20 | – |
| O=C(Nc1ccnnc1)c1cc(CN2CCOCC2)ccc1OCc1ccc(F)c(F)c1 [Example 111, 2-{[(3,4-Difluorophenyl)methyl]oxy}-5-(4-morpholinylmethyl)-N-4-pyridazinylbenzamide] | ≤ 20 | – |
| COc1ccccc1COc1ccc(-c2cnn(C)c2)cc1C(=O)Nc1cccnc1 [Example 114, 2-({[2-(Methyloxy)phenyl]methyl}oxy)-5-(1-methyl-1H-pyrazol-4-yl)-N-3-pyridinylbenzamide] | ≤ 20 | – |
| NCc1ccc(OCc2ccc(F)c(F)c2)c(C(=O)Nc2cccnc2)c1 [Example 120A, 5-(Aminomethyl)-2-{[(3,4-difluorophenyl)methyl]oxy}-N-3-pyridinylbenzamide] | > 25.1 | – |
| COC(=O)NCc1ccc(OCc2ccc(F)c(F)c2)c(C(=O)Nc2cccnc2)c1 [Example 120B, Methyl ({4-{[(3,4-difluorophenyl)methyl]oxy}-3-[(3-pyridinylamino)carbonyl]phenyl}methyl)carbamate] | > 25.1 | – |
| Cc1nocc1NC(=O)c1cc(C(=O)N2CCOCC2)ccc1OCc1ccc(F)cc1 [Example 124, 2-{[(4-Fluorophenyl)methyl]oxy}-N-(3-methyl-4-isoxazolyl)-5-(4-morpholinylcarbonyl)benzamide] | > 25.1 | – |
| Cc1nocc1NC(=O)c1cc(C(=O)N2CCOCC2)ccc1OCc1ccc(F)cc1F [Example 126, 2-{[(2,4-Difluorophenyl)methyl]oxy}-N-(3-methyl-4-isoxazolyl)-5-(4-morpholinylcarbonyl)benzamide] | ≤ 20 | – |
| O=C(Nc1ccnnc1)c1cc(C(F)(F)F)ccc1OCc1ccc(F)cc1 [Example 132, 2-{[(4-Fluorophenyl)methyl]oxy}-N-4-pyridazinyl-5-(trifluoromethyl)benzamide] | ≤ 20 | – |
| Cc1nocc1NC(=O)c1cc(C(F)(F)F)ccc1OCc1ccc(F)cc1 [Example 133, 2-{[(4-fluorophenyl)methyl]oxy}-N-(3-methyl-4-isoxazolyl)-5-(trifluoromethyl)benzamide] | > 25.1 | – |
| Cc1oncc1NC(=O)c1cc(-c2cnn(C)c2)ccc1OCc1ccc(F)cc1 [Example 135, 2-{[(4-Fluorophenyl)methyl]oxy}-N-(5-methyl-4-isoxazolyl)-5-(1-methyl-1H-pyrazol-4-yl)benzamide] | – | ≤ 0.1 |
